Reference: paper PMC8197720, “Targeted radioimmunotherapy with the iodine-131-labeled caerin 1.1 peptide for human anaplastic thyroid cancer in nude mice” (Annals of Nuclear Medicine, 2021)

What was measured:
CAL-62 tumor = assay: CAL-62 subcutaneous xenograft treatment experiment with H&E and TUNEL staining; format: in vivo, BALB/C nude mice; conditions: tumor sections after treatment, compared to PBS group
Procedure: (§1) To reduce the unnecessary thyroid uptake of ^131I, before the in vivo experiments, all nude mice were fed potassium iodide in a concentration of 0.1% for 3 days to saturate the thyroid. CAL-62 tumor-bearing mice were randomly divided into four groups (n = 5 per group) that received one of the following treatments: PBS, F1 only, ^131I-F1, ^131I only. The mice were injected intratumorally with 100 µl PBS containing 8 µg of F1 peptide, 200 µCi of ^131I or 8 µg of F1 peptide labeled with 200 µCi ^131I every 3 days for a total of three times. Then, 3 days after the final treatment, the mice were sacrificed, and the tumors were isolated and weighed.

[1] = Body weight of CAL-62 tumor-bearing mice under treatment; format: in vivo, BALB/C nude mice; conditions: intratumoral, 8 µg F1 and/or 200 µCi 131I every 3 days, three times, n = 5, mean ± SD
Procedure: as §1
Next, we studied whether F1 was able to inhibit CAL-62 cell growth in vivo. Nude mice were subcutaneously injected with 5 × 10^5 CAL-62 cells. When the tumor diameters were close to 6 mm, the mice were treated with 100 µl PBS containing 8 µg of F1 peptide, 200 µCi of ^131I or 8 µg of F1 peptide labeled with 200 µCi ^131I every 3 days for a total of three times. […] The mice were euthanized, and the tumors were isolated and weighed.

[2] = system: cervical cancer cell (TC-1); conditions: 30 μg of peptide; cited from earlier work
Text: First, ^131I-F1 was successfully synthesized using the chloramine-T method. […] Furthermore, a subcutaneous xenograft model was used to investigate the antitumor activity of ^131I-F ...

Compound	H&E staining of tumors (ablation/necrosis of tumor cells) (CAL-62 tumor)	Weight of the mice three days after the final treatment [1] [g]	Inhibitory effect on TC-1 in vivo [2]
[131I-].[Na+] [^131I, iodine-131]	only a few necrosis events	16.43 ± 1.386	
caerin 1.9 [F3]			significant inhibitory effect
